Our source for the ED50 values is patent EP0106988A1, “Pharmacologically active lactam derivatives” (THE WELLCOME FOUNDATION LIMITED, priority 1982, dated 1984).

Test system in one assay: not listed separately
Nature of the assay: Modified trypsin hyperalgesic assay (THA). Format: in vivo. As to conditions: 1 h; analgesia; pain scores determined 60 minutes after trypsin injection. On the procedure: The procedure described by Vinegar et al. in Eur. J] […] The analgesic agents were administered 30 minutes after the administration of trypsin. In addition, a modification of Vinegar's published assay was carried out, comprising the administration of analgesic agent preceding subplantar injectin of trypsin (0.10 ml) of 10% solution of trypsin in pyrogen-free water by 15 minutes. In both THA's, pain scores were determined 60 minutes after trypsin injection. The results of the modification was to increase the sensitivity of the THA to the mild analgesic action of the agents.
As for `C[C@@H]1CN(c2ccc3c(c2)OCO3)C(=O)[C@H]1C` (relative stereo) [Example 4, trans-1-(1,3-benzodioxol-5-yl)-3,4-dimethyl-pyrrolidin-2-one], the ED50 worked out at 46 mg/kg.
On the same count and under the same terms, with `CC1CC(=O)N(c2ccc3c(c2)OCO3)C1` (stereo not shown) [Example 1, 1-(1,3-benzodioxol-5-yl)-4-melhyl-pyrrolidin-2-one] the figure was 80 mg/kg; with `O=C(O)CCCNc1ccc2c(c1)OCO2` [Example 5, 4-(1,3-benzodioxol-5-yl)amino butyric acid], 60 mg/kg.
Still for that read-out and setting: with `O=C1CCCN1c1ccc2[nH]ncc2c1` [Example 7, 1-(1H-indazol-5-yl)-pyrrolidin-2-one] the figure was 45 mg/kg.
The same measure, in the same setting: then `C#CCOc1ccccc1N1CCCC1=O` [Example 27, 1-(2-(propyl-yn-yloxy)phenyl)-pyrrolidin-2-one], with 40 mg/kg.

The test system of another assay is rat. Nature of the assay: Rat hot plate assay. The assay is classed as in vivo. Conditions: po, 1 h, administered orally by gavage 60 min prior to testing, protected = no response within 18.3 seconds. The source says:
The rat hot plate assay incorporated 2 modifications of the mouse hot plate assay originally described by Eddy et al, J. Pharmacol. Exp. Ther. 98, 121-137 (1950). The first modification was enlargement of the diameter of the cylindrical (water filled) copper plate to 25.0 cm to accommodate rats instead of mice.
The second modification was the use of a temperature controller to regulate a 250 watt infrared heat lamp which was activated via a thermistor probe attached to the undersurface of the top of the copper plate. The surface temperature was thus maintained at 45 + 1.0°C (N=28 measurements of the hot plate temperature under experimental conditions). The time in which a rat placed on the hotplate responded by lifting, shaking or licking either or its hind or forelimbs was recorded in tenths of a second.
Only animals responding in pretest within 6-13 seconds were used in the studies. Drugs were suspended in 0.5% sodium carboxymethylcellulose and administered orally, by gavage, in a volume of 1.00 ml/100 g.b wt. 60 min prior to testing. […] The reaction time of 18.3 seconds represented the sum of the mean protest times of 40 untreated rats plus the time of 3 standard deviations of the mean.ED50's and their standard errors were estimated from a graph of the dose-response curves using the method of Miller and Tainter (Proc.Soc.Exp.Biol.Med. 57, 261-262 (1944). Following this procedure the analgesic activity of the compounds of formula (I) was compared to that of standard analgesic drugs.
On the technique in general: Hot-plate and tail-flick tests time the reaction to a heat stimulus.
`CC1CC(=O)N(c2ccc3c(c2)OCO3)C1` (stereo not shown) [Example 1, 1-(1,3-benzodioxol-5-yl)-4-melhyl-pyrrolidin-2-one] gave an ED50 of 120 mg/kg.
Still for that read-out and setting: then `O=C(O)CCCNc1ccc2c(c1)OCO2` [Example 5, 4-(1,3-benzodioxol-5-yl)amino butyric acid], with 120 mg/kg; and `O=C1CCCN1c1ccc2[nH]ncc2c1` [Example 7, 1-(1H-indazol-5-yl)-pyrrolidin-2-one], with 30 mg/kg; and `C=CCOc1ccccc1N1CCCC1=O` [Example 28, 1-(2-allyloxyphenyl)-pyrrolidin-2-one], with 120 mg/kg.

Another assay deals with rat. Nature of the assay: Carrageenin pleurisy assay (CPA), acute anti-inflammatory activity. The assay is classed as in vivo. As to conditions: dose required to reduce the 3 hour exudate volume by 50%. On the procedure: Following the procedure described by Vinegar et al. in Proc.Soc.Exp.Biol.Med. 151, 556, (1976), the actue anti-inflammatory activityof compounds of formula (I) was compared with that of known anti-inflammatory drugs in the rat. The average 3 hour exudate volume for each drug treated group was determined and the % inhibition relative to solvent-fed control animals calculated, the ED50 being the dose required to reduce the 3 hour exudate volume by 50%.
With `C[C@@H]1CN(c2ccc3c(c2)OCO3)C(=O)[C@H]1C` (relative stereo) [Example 4, trans-1-(1,3-benzodioxol-5-yl)-3,4-dimethyl-pyrrolidin-2-one], the ED50 came out at 75 mg/kg.
Compound `CC1CC(=O)N(c2ccc3c(c2)OCO3)C1` (stereo not shown) [Example 1, 1-(1,3-benzodioxol-5-yl)-4-melhyl-pyrrolidin-2-one] gave an ED50 of 96 mg/kg.
The same measure, in the same setting: with `C=CCOc1ccc(N2CCCC2=O)cc1` [Example 2, 1-(4-allyloxyphenyl)-pyrrolidin-2-one] the figure was 57 mg/kg; with `O=C(O)CCCNc1ccc2c(c1)OCO2` [Example 5, 4-(1,3-benzodioxol-5-yl)amino butyric acid], 42 mg/kg; with `COc1ccc(OC)c(N2CCCC2=O)c1` [Example 6, 1-(2,5-dimethoxyphenyl)-pyrrolidin-2-one], 80 mg/kg.
`O=C1CCCN1c1ccc2[nH]ncc2c1` [Example 7, 1-(1H-indazol-5-yl)-pyrrolidin-2-one] displayed an ED50 of 34 mg/kg.
Still for that read-out and setting: then `COc1cc(OC)cc(N2CCCC2=O)c1` [Example 10, 1-(3,5-dimethoxyphenyl)-pyrrolidin-2-one], with 95 mg/kg.
`CCOc1ccc(N2CCCC2=O)cc1OCC` [Example 18, 1-(3,4-diethoxyphenyl)-pyrrolidin-2-one] came in with an ED50 of 19 mg/kg.
Same read-out and setting: with `CCc1cccc(N2CCCC2=O)c1` [Example 20, 1-(3-ethylphenyl)-pyrrolidin-2-one] the figure was 78 mg/kg; with `O=C1CCCN1c1ccccn1` [Example 21, 1-(2-pyridyl)-pyrrolidin-2-one], 41 mg/kg.
The compound `Cc1cccnc1N1CCCC1=O` [Example 24, 1-(3-methyl-2-pyridyl)-pyrrolidin-2-one] gave an ED50 of 29 mg/kg. This ED50 and that of the compound before are within 1.5-fold of each other.
The same measure, in the same setting: then `CC1CCN(c2ccc3c(c2)OCO3)C1=O` (stereo not shown) [Example 26, 1-(1,3-benzodioxol-5-yl)-3-methyl-pyrrolidin-2-one], with 39 mg/kg; and `C#CCOc1ccccc1N1CCCC1=O` [Example 27, 1-(2-(propyl-yn-yloxy)phenyl)-pyrrolidin-2-one], with 35 mg/kg.
Still for that read-out and setting: then `C=CCOc1ccccc1N1CCCC1=O` [Example 28, 1-(2-allyloxyphenyl)-pyrrolidin-2-one], with 62 mg/kg.
Still for that read-out and setting: then `C#CC(C)Oc1ccccc1N1CCCC1=O` (stereo not shown) [Example 31, 1-(2-(1-methyl-prop-2-yn-yl)oxyphenyl)-pyrrolidin-2-one], with 39 mg/kg; and `O=C(O)COc1ccccc1N1CCCC1=O` [Example 37, 2-(2-oxy-1-pyrrolidinyl)phenoxyacetic acid], with 50 mg/kg.

Usually ED50 stands for the midpoint of the dose-response relation.
